According to article PMC5884652, “New antimicrobial peptide kills drug-resistant pathogens without detectable resistance” (Oncotarget, 2018):
Ends that are not written are not given here.

What was measured:
[1] = test system: TNF-α and IL-1β in RAW 264.7 macrophages; test: Pro-inflammatory cytokines in macrophages; format: cell-based, mouse
Protocol: To examine cytokine expression elicited by S. aureus CCARM 0027, RAW 264.7 mouse macrophages were cultured in DMEM supplemented with antibiotics ([…] penicillin and 100 μg/mL streptomycin) and 10% fetal calf serum in 12-well plates at 37° C in a humidified chamber with an atmosphere containing 5% CO2. Expression of the pro-inflammatory cytokines TNFα and IL-β was evaluated after the addition of S. aureus CCARM 0027 (1 × 10^6 cfu/mL) for 30 min at […]. After treatment, the RAW 264.7 cells (1 × 10^6 cells/mL) were incubated for an additional 24 h with or without CSP-4 (25, 50, 100, and 200 µg/mL). The cells were then collected and the protein was extracted using PRO-PREP™ protein extraction solution (iNtRON Biotechnology, Gyeonggi-do, Korea).
RAW 264.7 cells (1 × 10^6 cells/mL) were seeded into a 12-well plate and incubated for 24 h as described above. […] The levels of pro-inflammatory cytokines in the supernatants were determined after 12 h using mouse anti-TNF-α and anti-IL-1β antibodies based on absorbance at 450 nm using a microplate reader (VERSA Max microplate reader, Molecular Devices). Cytokine concentrations were also determined using TNF-α and IL-1β enzyme-linked immunosorbent assay kits (Koma Biotech, Seoul, Korea). […]

S. aureus LTA = test: Peptide-LTA binding affinity assay (dansyl polymyxin B); details: LTA 9 µg, 2.5 μM dansyl polymyxin B, 5 mM HEPES buffer pH 7.4, peptide 0.4 to 4 μM
Protocol: Lipoteichoic acid (LTA) and lipopolysaccharide (LPS) binding affinity assays were performed using a Perkin-Elmer LS55 fluorometer (Waltham, MA, USA). S. aureus LTA and E. coli LPS (9 µg) were incubated with 2.5 μM dansyl-polymyxin B in 5 mM HEPES buffer for 5–10 min at pH 7.4. The CSP-4 peptide was added in 0.4 μM increments from 0.4 to 4 μM. The increase in fluorescence intensity was assessed using a spectrofluorometer at an excitation wavelength of 340 nm and an emission wavelength of 482 nm (Perkin-Elmer LS55).

E. coli = test: SYTOX-Green uptake; format: cell-based; details: E. coli 2 × 10^7 cfu/mL, 1 μM SYTOX-Green, 10 mM sodium phosphate buffer, pH 5.5 and pH 7.4
S. aureus = test: SYTOX-Green uptake; format: cell-based; details: S. aureus 2 × 10^7 cfu/mL, 1 μM SYTOX-Green, 10 mM sodium phosphate buffer
Protocol: S. aureus CCARM 259237 cells were grown to the mid-log phase and suspended in 10 mM sodium phosphate buffer supplemented with 10% culture medium at pH 7.4 and 37° C, and then washed and suspended (2 × 10^7 cfu/mL) in 10 mM sodium phosphate buffer (pH 7.4) and incubated with 1 μM SYTOX-Green for 20 min in the dark. After the addition of peptides at the appropriate concentrations (1/2 MIC, MIC, 2× MIC, and/or 4× MIC), time-dependent increases in fluorescence, which is caused by the binding of the cationic dye to intracellular nucleic acids, was monitored using a Perkin-Elmer LS55 fluorometer (excitation wavelength, 485 nm; emission wavelength, 520 nm).

FLRFIGSVKHGKGHLVHHIGVAL-NH2 [CSP-4]
TNF-α and IL-1β levels ([1]; RAW 264.7 cells exposed to S. aureus CCARM 0027 (1 × 10^6 cfu/mL), CSP-4 25, 50, 100, and 200 μg/mL, ELISA): significantly decreased
TNF-α and IL-1β levels ([1]; RAW 264.7 cells treated with 1 μg/mL S. aureus LTA, CSP-4 100 µg/mL, immunocytochemistry): reduced TNF-α and IL-1β levels
Binding to LTA (fluorescence of dansyl polymyxin B) (S. aureus LTA): dose-dependent increase in fluorescence intensity
Membrane disruption (SYTOX-Green fluorescence) (E. coli): dose-dependent increase in fluorescence intensity
Membrane disruption (SYTOX-Green fluorescence) (S. aureus): dose-dependent increase in fluorescence intensity
